Assay results as given in paper PMC11392244, “Characterization of a unique catechol-O-methyltransferase as a molecular drug target in parasitic filarial nematodes” (PLOS Neglected Tropical Diseases, 2024).
Values joined by “and” are separate entries in the source; they are usually repeats but may differ in a detail not shown here. Equal entries are not always repeated. Where two headings read alike, the source gives them in different places.

Assays:
[1] = tested on: DiMT protein; format: biochemical, Dirofilaria immitis
[2] = tested on: D. immitis microfilariae; experiment: In vitro efficacy against live D. immitis microfilariae (motility, completely immotile %); format: cell-based, Dirofilaria immitis; details: for Completely Immotile Microfilariae (%): single experiments
[3] = tested on: mammalian cells; details: read-out: Cytotoxicity IC50, ref Zhang et al., [30]; cited from earlier work

In the case of CO[C@@H]1/C=C\O[C@]2(C)Oc3c(C)c(O)c4c(O)c(c(CN(C)C)c(O)c4c3C2=O)NC(=O)/C(C)=C\C=C[C@@H](C)[C@@H](O)[C@H](C)[C@@H](O)[C@H](C)[C@H](OC(C)=O)[C@@H]1C [NSC145612], the “Mean Percent Inhibition” value ([1]; 50 µM) is reported as 68.4% and 38.5% and 36.2%, the “Mean Percent Inhibition, Average” value ([1]; 50 µM) is reported as 47.7% and the “Mean Percent Inhibition” value ([1]; 100 µM) is reported as 57.6% and 50.0% and 61.2%. For the same compound, the “Mean Percent Inhibition, Average” value ([1]; 100 µM) was 56.3%, the “Mean Percent Inhibition” value ([1]; 150 µM) was 66.2% and 62.4% and 82.9% and the “Mean Percent Inhibition, Average” value ([1]; 150 µM) was 70.5%. The “Mean Percent Inhibition” value ([1]; 200 µM) was 77.2% and 75.4% and 75.6%, the “Mean Percent Inhibition, Average” value ([1]; 200 µM) was 76.1% and the “Mean Percent Inhibition” value ([1]; 250 µM) was 84.0% and 87.6% and 81.7%. The “Mean Percent Inhibition, Average” value ([1]; 250 µM) was 84.4%, the IC50 ([1]; read-out: IC 50 (μM ± SEM)) was 62.1 ± 1.8 µM and the “Mean completely Immotile (%)” value ([2]; 25 µM, 0 h) was 0%. For the same compound, the “Mean completely Immotile (%)” value ([2]; 25 µM, 24 h) was 4.67%, the “Mean completely Immotile (%)” value ([2]; 25 µM, 48 h) was 10.17% and the “Mean completely Immotile (%)” value ([2]; 25 µM, 72 h) was 25%. The “Mean completely Immotile (%)” value ([2]; 25 µM, 96 h) was 38.33%, the “Mean completely Immotile (%)” value ([2]; 25 µM, 120 h) was 48.67% and the “Mean completely Immotile (%)” value ([2]; 50 µM, 0 h) was 0%. For the same compound, the “Mean completely Immotile (%)” value ([2]; 50 µM, 24 h) was 12%, the “Mean completely Immotile (%)” value ([2]; 50 µM, 48 h) was 26.33% and the “Mean completely Immotile (%)” value ([2]; 50 µM, 72 h) was 43.33%. The “Mean completely Immotile (%)” value ([2]; 50 µM, 96 h) was 64%, the “Mean completely Immotile (%)” value ([2]; 75 µM, 0 h) was 0% and the “Mean completely Immotile (%)” value ([2]; 75 µM, 24 h) was 24.33%. For the same compound, the “Mean completely Immotile (%)” value ([2]; 75 µM, 48 h) was 87.33%, the “Mean completely Immotile (%)” value ([2]; 75 µM, 72 h) was 96.67% and the “Mean completely Immotile (%)” value ([2]; 75 µM, 96 h) was 100%. For the same compound, the “Mean completely Immotile (%)” value ([2]; 75 µM, 120 h) was 100%, the “Mean completely Immotile (%)” value ([2]; 100 µM, 0 h) was 0% and the “Mean completely Immotile (%)” value ([2]; 100 µM, 24 h) was 55.33%. For the same compound, the “Mean completely Immotile (%)” value ([2]; 100 µM, 48 h) was 94.33%, the “Mean completely Immotile (%)” value ([2]; 100 µM, 72 h) was 100% and the “Mean completely Immotile (%)” value ([2]; 100 µM, 96 h) was 100%. The “Mean completely Immotile (%)” value ([2]; 100 µM, 120 h) was 100%, the EC50 ([2]; 96 h post-treatment, read-out: Anti-parasitic EC50) was 32.2 µM and the “Completely Immotile Microfilariae (%)” value ([2]; 25 µM, 0 h) was 0%. The “Completely Immotile Microfilariae (%)” value ([2]; 25 µM, 24 h) was 5% and 3% and 6%, the “Completely Immotile Microfilariae (%)” value ([2]; 25 µM, 48 h) was 10% and 8% and 12.5% and the “Completely Immotile Microfilariae (%)” value ([2]; 25 µM, 72 h) was 28% and 22% and 25%. For the same compound, the “Completely Immotile Microfilariae (%)” value ([2]; 25 µM, 96 h) was 41% and 36% and 38% and 50%, the “Completely Immotile Microfilariae (%)” value ([2]; 25 µM, 120 h) was 50% and 44% and 52% and the “Completely Immotile Microfilariae (%)” value ([2]; 50 µM, 0 h) was 0%. For the same compound, the “Completely Immotile Microfilariae (%)” value ([2]; 50 µM, 24 h) was 10% and 12% and 14%, the “Completely Immotile Microfilariae (%)” value ([2]; 50 µM, 48 h) was 25% and 23% and 31% and the “Completely Immotile Microfilariae (%)” value ([2]; 50 µM, 72 h) was 40% and 44% and 46%. The “Completely Immotile Microfilariae (%)” value ([2]; 50 µM, 96 h) was 60% and 64% and 68% and 100%, the “Completely Immotile Microfilariae (%)” value ([2]; 50 µM, 120 h) was 100% and the “Completely Immotile Microfilariae (%)” value ([2]; 75 µM, 0 h) was 0%. For the same compound, the “Completely Immotile Microfilariae (%)” value ([2]; 75 µM, 24 h) was 21% and 28% and 24%, the “Completely Immotile Microfilariae (%)” value ([2]; 75 µM, 48 h) was 85% and 90% and 87% and the “Completely Immotile Microfilariae (%)” value ([2]; 75 µM, 72 h) was 95% and 97% and 98%. For the same compound, the “Completely Immotile Microfilariae (%)” value ([2]; 75 µM, 96 h) was 100%, the “Completely Immotile Microfilariae (%)” value ([2]; 75 µM, 120 h) was 100% and the “Completely Immotile Microfilariae (%)” value ([2]; 100 µM, 0 h) was 0%. The “Completely Immotile Microfilariae (%)” value ([2]; 100 µM, 24 h) was 50% and 56% and 60%, the “Completely Immotile Microfilariae (%)” value ([2]; 100 µM, 48 h) was 93% and 95% and the “Completely Immotile Microfilariae (%)” value ([2]; 100 µM, 72 h) was 100%. The “Completely Immotile Microfilariae (%)” value ([2]; 100 µM, 96 h) was 100%, the “Completely Immotile Microfilariae (%)” value ([2]; 100 µM, 120 h) was 100% and the “effect on microfilariae” value ([2]; up to 120 h of culture) was “killing effect”. The IC50 [3] was 302 µM.
